Results published in US9586931B2 (Merck Sharp & Dohme Corp., priority 2012, dated 2017).
Several values for one entry are separate records, joined by “and”; a condition that tells them apart may be missing. Equal values may be shown once.

What follows are compounds tested against T1, recombinant human GST-Syk (Homo sapiens, UniProt P43405) (assay: Homogeneous Time-Resolved Fluorescence (HTRF) assay for the recombinant human Syk enzyme). Settings: recombinant human GST-Syk 5 pM, ATP 25 μM, 10-dose titration 10 μM to 0.508 nM; read-out: rhSYK Activity IC50.
T1 construct: purchased Carna Biosciences 08-176
Format: biochemical
Outline: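 Detection used time-resolved fluorescence 30 min after adding a quench mix (40 mM EDTA, 15 mM Tris pH 7.5, 0.01% Tween 20) containing 2 nM Europium anti-pTyr antibody and 70 nM streptavidin-APC. This followed 45 min of room-temperature peptide phosphorylation by recombinant GST-tagged human Syk.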

Going from `Cc1cc(Nc2cc(C(F)(F)F)ccn2)nc(-c2cn(CC3(O)CCS(=O)(=O)CC3)nn2)c1` [Example 4.29, 4-{[4-(4-methyl-6-{[4-(trifluoromethyl)pyridin-2-yl]amino}pyridin-2-yl)-1H-1,2,3-triazol-1-yl]methyl}tetrahydro-2H-thiopyran-4-ol 1,1-dioxide] to `Cc1cc(Nc2cc(C(F)(F)F)ccn2)nc(-c2cn(CCC(=O)O)nn2)c1` [Example 5.9, 3-[4-(4-methyl-6-{[4-(trifluoromethyl)pyridin-2-yl]amino}pyridin-2-yl)-1H-1,2,3-triazol-1-yl]propanoic acid], the IC50 rises from 8.2 nM to 38.1 nM (4.6-fold). The first is the more potent here.

First: Cc1cc(Nc2cc(C(F)(F)F)ccn2)nc(-c2cn(CC(O)CN3CCCC3=O)nn2)c1 (stereo not drawn) [Example 4.30, 1-{2-hydroxy-3-[4-(4-methyl-6-{[4-(trifluoromethyl)pyridin-2-yl]amino}pyridin-2-yl)-1H-1,2,3-triazol-1-yl]propyl}pyrrolidin-2-one]
Second: Cc1cc(Nc2cc(C(F)(F)F)ccn2)nc(-c2cn(CC(O)CN3CCOC3=O)nn2)c1 (stereo not drawn) [Example 4.33, 3-{2-hydroxy-3-[4-(4-methyl-6-{[4-(trifluoromethyl)pyridin-2-yl]amino}pyridin-2-yl)-1H-1,2,3-triazol-1-yl]propyl}-1,3-oxazolidin-2-one]
The IC50 of the first is 1.8-fold higher: 26.6 nM for the first, 14.9 nM for the second.

Going from `CCC(O)(CC)Cn1cc(-c2cc(C)cc(Nc3cc(C(F)(F)F)ccn3)n2)nn1` [Example 4.31, 3-{[4-(4-methyl-6-{[4-(trifluoromethyl)pyridin-2-yl]amino}pyridin-2-yl)-1H-1,2,3-triazol-1-yl]methyl}pentan-3-ol] to `CC(C)=CCn1cc(-c2cc(C)cc(Nc3cc(C(F)(F)F)ccn3)n2)nn1` [Example 5.37, 4-methyl-6-[1-(3-methylbut-2-en-1-yl)-1H-1,2,3-triazol-4-yl]-N-[4-(trifluoromethyl)pyridin-2-yl]pyridin-2-amine], the IC50 rises from 8.1 nM to 30.2 nM (3.7-fold). The first is the more potent here.

`Cc1cc(Nc2cc(C(F)(F)F)ccn2)nc(-c2cn(CC(O)COCC(F)(F)F)nn2)c1` (stereo not drawn) [Example 4.32, 1-[4-(4 methyl-6-{[4-(trifluoromethyl)pyridin-2-yl]amino}pyridin-2-yl)-1H-1,2,3-triazol-1-yl]-3-(2,2,2-trifluoroethoxy)propan-2-ol] and `Cc1cc(Nc2cc(C(F)(F)F)ccn2)nc(-c2cn(C[C@@H](O)CO)nn2)c1` [Example 5.19, (2R)-3-[4-(4-methyl-6-{[4-(trifluoromethyl)pyridin-2-yl]amino}pyridin-2-yl)-1H-1,2,3-triazol-1-yl]propane-1,2-diol] are within 1.5-fold of each other in IC50: 4.8 nM for the first, 4 nM for the second.

Going from `Cc1cc(Nc2nccc(C(F)F)n2)cc(-c2cn(C3CCCCC3O)nn2)c1` (stereo not drawn) [Example 4.34] to `Cc1cc(Nc2nccc(C(F)(F)F)n2)cc(-c2cn(CCO)nn2)c1` [Example 5.1, 2-(4-(3-Methyl-5-((4-(trifluoromethyl)pyrimidin-2-yl)amino)phenyl)-1H-1,2,3-triazol-1-yl)ethanol], the IC50 rises from 4.1 nM to 14.9 nM (3.6-fold).

Compared with `Cc1cc(Nc2nccc(C(F)F)n2)cc(-c2cn(C3CCCCC3O)nn2)c1` (stereo not drawn) [Example 4.35, 2-[4-(3-{[4-(difluoromethyl)pyrimidin-2-yl]amino}-5-methylphenyl)-1H-1,2,3-triazol-1-yl]cyclohexanol], `Cc1cc(Nc2nccc(C(F)(F)F)n2)cc(-c2cn(C[C@H](O)CO)nn2)c1` [Example 5.24, (2S)-3-[4-(3-methyl-5-{[4-(trifluoromethyl)pyrimidin-2-yl]amino}phenyl)-1H-1,2,3-triazol-1-yl]propane-1,2-diol] is 2.2-fold higher in IC50: 11 nM for the first, 24.6 nM for the second. The first is the more potent here.

`Cc1cc(Nc2nccc(C(F)(F)F)n2)cc(-c2cn(Cc3ccc(CC(=O)O)cc3)nn2)c1` [Example 5.2, (4-{[4-(3-methyl-5-{[4-(trifluoromethyl)pyrimidin-2-yl]amino}phenyl)-1H-1,2,3-triazol-1-yl]methyl}phenyl)acetic acid] and `Cc1cc(Nc2nccc(C(F)(F)F)n2)cc(-c2cn(Cc3ccc(C(=O)O)cc3)nn2)c1` [Example 5.21, 4-{[4-(3-methyl-5-{[4-(trifluoromethyl)pyrimidin-2-yl]amino}phenyl)-1H-1,2,3-triazol-1-yl]methyl}benzoic acid] are within 1.5-fold of each other in IC50: 4.4 nM for the first, 3.3 nM for the second.

Compared with `Cc1cc(Nc2cc(C(F)(F)F)ccn2)nc(-c2cn(C[C@H]3CCC(=O)N3)nn2)c1` [Example 5.3, (5R)-5-{[4-(4-methyl-6-{[4-(trifluoromethyl)pyridin-2-yl]amino}pyridin-2-yl)-1H-1,2,3-triazol-1-yl]methyl}pyrrolidin-2-one], `C/C=C/Cn1cc(-c2cc(C)cc(Nc3cc(C(F)(F)F)ccn3)n2)nn1` [Example 5.38, 6-{1-[(2E)-but-2-en-1-yl]-1H-1,2,3-triazol-4-yl}-4-methyl-N-[4-(trifluoromethyl)pyridin-2-yl]pyridin-2-amine] is 7.2-fold lower in IC50: 129 nM for the first, 17.8 nM for the second.

`Cc1cc(Nc2nccc(OCCO)n2)cc(-c2cn(C[C@H](O)CO)nn2)c1` [Example 5.8, (2S)-3-[4-(3-{[4-(2-hydroxyethoxy)pyrimidin-2-yl]amino}-5-methylphenyl)-1H-1,2,3-triazol-1-yl]propane-1,2-diol] and `COCc1cc(Nc2nccc(C(F)(F)F)n2)cc(-c2cn(C[C@H](O)CO)nn2)c1` [Example 5.23, (2S)-3-{4-[3-(methoxymethyl)-5-{[4-(trifluoromethyl)pyrimidin-2-yl]amino}phenyl]-1H-1,2,3-triazol-1-yl}propane-1,2-diol] are within 1.5-fold of each other in IC50: 62 nM for the first, 64.7 nM for the second.

Compared with `COC(=O)CCn1cc(-c2cc(C)cc(Nc3cc(C(F)(F)F)ccn3)n2)nn1` [Example 5.10, methyl 3-[4-(4-methyl-6-{[4-(trifluoromethyl)pyridin-2-yl]amino}pyridin-2-yl)-1H-1,2,3-triazol-1-yl]propanoate], `CCOC(=O)/C=C/Cn1cc(-c2cc(C)cc(Nc3cc(C(F)(F)F)ccn3)n2)nn1` [Example 5.34, ethyl (2E)-4-[4-(4-methyl-6-{[4-(trifluoromethyl)pyridin-2-yl]amino}pyridin-2-yl)-1H-1,2,3-triazol-1-yl]but-2-enoate] is 4.2-fold higher in IC50: 40.4 nM for the first, 171 nM for the second.

First: Cc1ccnc(Nc2cc(C)cc(-c3cn(C[C@H](O)CC#N)nn3)n2)c1 [Example 5.14, (3R)-3-hydroxy-4-(4-{4-methyl-6-[(4-methylpyridin-2-yl)amino]pyridin-2-yl}-1H-1,2,3-triazol-1-yl)butanenitrile]
Second: Cc1ccnc(Nc2cc(C)cc(-c3cn(C[C@@H](C)CO)nn3)n2)c1 [Example 5.15, (2R)-2-methyl-3-(4-{4-methyl-6-[(4-methylpyridin-2-yl)amino]pyridin-2-yl}-1H-1,2,3-triazol-1-yl)propan-1-ol]
The IC50 of the first is 10-fold lower: 23.4 nM for the first, 240 nM for the second.

Going from `Cc1ccnc(Nc2cc(C)cc(-c3cn(C[C@H](C)CO)nn3)n2)c1` [Example 5.16, (2S)-2-methyl-3-(4-{4-methyl-6-[(4-methylpyridin-2-yl)amino]pyridin-2-yl}-1H-1,2,3-triazol-1-yl)propan-1-ol] to `Cc1ccnc(Nc2cc(C)cc(-c3cn(CCO)nn3)n2)c1` [Example 5.18, 2-(4-{4-methyl-6-[(4-methylpyridin-2-yl)amino]pyridin-2-yl}-1H-1,2,3-triazol-1-yl)ethanol], the IC50 falls from 235 nM to 154 nM (1.5-fold). The second is the more potent here.

Going from `COC(=O)C(C)n1cc(-c2cc(C)cc(Nc3cc(C(F)(F)F)ccn3)n2)nn1` (stereo not drawn) [Example 5.20, methyl 2-[4-(4-methyl-6-{[4-(trifluoromethyl)pyridin-2-yl]amino}pyridin-2-yl)-1H-1,2,3-thiazol-1-yl]propanoate] to `Cc1cc(Nc2cc(C(F)(F)F)ccn2)nc(-c2cn([C@H](C)C(=O)O)nn2)c1` [Example 5.29, (2R)-2-[4-(4-methyl-6-{[4-(trifluoromethyl)pyridin-2-yl]amino}pyridin-2-yl)-1H-1,2,3-triazol-1-yl]propanoic acid], the IC50 rises from 24.1 nM to 166 nM (6.9-fold). The first is the more potent here.

`Cc1cc(Nc2cc(C(F)(F)F)ccn2)nc(-c2cn([C@@H](C)C(=O)O)nn2)c1` [Example 5.30, (2S)-2-[4-(4-methyl-6-{[4-(trifluoromethyl)pyridin-2-yl]amino}pyridin-2-yl)-1H-1,2,3-triazol-1-yl]propanoic acid] and `CC/C=C/Cn1cc(-c2cc(C)cc(Nc3cc(C(F)(F)F)ccn3)n2)nn1` [Example 5.31, 4-methyl-6-{1-[(2E)-pent-2-en-1-yl]-1H-1,2,3-triazol-4-yl}-N-[4-(trifluoromethyl)pyridin-2-yl]pyridin-2-amine] are within 1.5-fold of each other in IC50: 39.8 nM for the first, 48.6 nM for the second.

First: Cc1cc(Nc2cc(C(F)(F)F)ccn2)nc(-c2cn(C/C=C/COc3ccccc3Cl)nn2)c1 [Example 5.32, 6-{1-[(2E)-4-(2-chlorophenoxy)but-2-en-1-yl]-1H-1,2,3-triazol-4-yl}-4-methyl-N-[4-(trifluoromethyl)pyridin-2-yl]pyridin-2-amine]
Second: Cc1cc(Nc2cc(C(F)(F)F)ccn2)nc(-c2cn(C/C=C/c3ccccc3)nn2)c1 [Example 5.35, 4-methyl-6-{1-[(2E)-3-phenylprop-2-en-1-yl]-1H-1,2,3-triazol-4-yl}-N-[4-(trifluoromethyl)pyridin-2-yl]pyridin-2-amine]
The IC50 of the first is 2.5-fold higher: 752 nM for the first, 300 nM for the second.

`Cc1cc(Nc2cc(C(F)(F)F)ccn2)nc(-c2cn(C/C=C/c3ccncc3)nn2)c1` [Example 5.33, 4-methyl-6-{1-[(2E)-3-pyridin-4-ylprop-2-en-1-yl]-1H-1,2,3-triazol-4-yl}-N-[4-(trifluoromethyl)pyridin-2-yl]pyridin-2-amine] and `Cc1cc(Nc2cc(C(F)(F)F)ccn2)nc(-c2cn(C3C=CCCC3)nn2)c1` (stereo not drawn) [Example 5.36, 6-(1-cyclohex-2-en-1-yl-1H-1,2,3-triazol-4-yl)-4-methyl-N-[4-(trifluoromethyl)pyridin-2-yl]pyridin-2-amine] are within 1.5-fold of each other in IC50: 58.5 nM for the first, 52 nM for the second.

For `Cc1cc(Nc2cc(C(F)(F)F)ccn2)nc(-c2cn(C[C@H](O)CO)nn2)c1` [Example 5.7, (2S)-3-[4-(4-methyl-6-{[4-(trifluoromethyl)pyridin-2-yl]amino}pyridin-2-yl)-1H-1,2,3-triazol-1-yl]propane-1,2-diol], the IC50 was 7.3 nM and 3.4 nM.
